Measured values taken from patent US10000471B2, “Pyrazole P38 map kinase inhibitors” (Respivert Limited, priority 2010, dated 2018).
pEC50, pIC50: −log10 of the molar value.

What was measured:
[1] = tested on: Differentiated U937 cells; assay: Cell viability MTT assay; assay type: cell-based, human; conditions: negative = apparent increase in viability; for MTT Assay (Viability) 4 h d-U937, percentage loss of cell viability: 4 hr in 5% FCS; for MTT Assay (Viability) 24 h d-U937, percentage loss of cell viability: 24 h in 10% FCS
Outline: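 Differentiated U937 cells pre-incubated with compound either 4 hr in 5% FCS or 24 h in 10% FCS, then 1 hr MTT. Formazan dissolved in DMSO, absorbance at 550 nm. Percentage viability loss relative to 0.5% DMSO vehicle; apparent increases appear as negative percentages.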

[2] = target: T1, p38 MAPKα isoform (MAPK14) (Homo sapiens, UniProt Q16539); assay: Enzyme inhibition assay (FRET, Z-LYTE), p38 MAPKα via MAPKAP-K2 activation; assay type: biochemical; conditions: read-out: Enzyme Inhibition IC50 p38α
T1 construct: purchased Invitrogen
T1 sequence (Q16539 whole entry, canonical isoform): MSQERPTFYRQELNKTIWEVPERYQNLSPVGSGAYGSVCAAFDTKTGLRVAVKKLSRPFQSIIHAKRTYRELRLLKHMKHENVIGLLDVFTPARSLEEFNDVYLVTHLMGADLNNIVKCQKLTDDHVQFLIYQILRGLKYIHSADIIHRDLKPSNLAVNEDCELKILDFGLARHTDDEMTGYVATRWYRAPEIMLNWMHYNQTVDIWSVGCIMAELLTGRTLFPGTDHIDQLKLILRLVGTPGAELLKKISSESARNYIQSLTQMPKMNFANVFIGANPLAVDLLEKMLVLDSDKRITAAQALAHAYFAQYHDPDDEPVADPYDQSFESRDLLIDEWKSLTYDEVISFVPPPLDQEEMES
Outline: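 Recombinant p38 MAPKα was preincubated with compound for 2 h at RT. Its activity was measured indirectly through activation/phosphorylation of downstream MAPKAP-K2, with a Z-LYTE FRET peptide read-out (coumarin/fluorescein ratio) after a 1 h development step. IC50 came from concentration-response curves of percent inhibition versus an uninhibited control.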

[3] = tested on: ICAM-1 induction in BEAS2B cells; assay: Poly I:C-induced ICAM-1 induction in BEAS2B cells; assay type: cell-based, human; conditions: Homo sapiens, BEAS-2B, read-out: PolyIC/ICAM1 IC50 BEAS2B
Outline: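 Human bronchial epithelial BEAS2B cells were pre-incubated with compound for 2 hr, then transfected with 1 μg/mL poly I:C. After 18 hr, surface ICAM-1 was measured by cell-based ELISA (OD450-655) and normalized to crystal violet cell counts (OD595). IC50 came from inhibition versus vehicle across the concentration-response curve.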

[4] = tested on: TNFα release in THP-1 cells; assay: LPS-induced TNFα release in THP-1 cells; assay type: cell-based, human; conditions: Homo sapiens
Outline: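 Human monocytic THP-1 cells stimulated with 3 μg/mL E. coli LPS for 4 hr; supernatant TNFα measured by sandwich ELISA. Inhibition at each concentration versus vehicle control, IC50 from concentration-response curve.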

[5] = tested on: IL-8 release in d-U937 cells; assay: LPS-induced IL-8 release in d-U937 cells; assay type: cell-based, human; conditions: Homo sapiens, dU937
Outline: (§1)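 PMA-differentiated (100 ng/ml, 48–72 hr) U937 macrophage-type cells pre-incubated 2 hr with compound, then stimulated 4 hr with 0.1 μg/mL E. coli O111:B4 LPS; supernatant TNFα and IL-8 measured by sandwich ELISA. TNFα inhibition expressed relative to 10 μg/mL BIRB796, giving REC50; IL-8 inhibition versus vehicle, giving IC50.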

[6] = target: T2, p38 MAPKγ (MAPK12) (Homo sapiens, UniProt P53778); assay: Enzyme inhibition assay (FRET, Z-LYTE), p38 MAPKγ; assay type: biochemical; conditions: read-out: Enzyme Inhibition IC50 p38γ
T2 construct: purchased Invitrogen
T2 sequence (P53778 1-367): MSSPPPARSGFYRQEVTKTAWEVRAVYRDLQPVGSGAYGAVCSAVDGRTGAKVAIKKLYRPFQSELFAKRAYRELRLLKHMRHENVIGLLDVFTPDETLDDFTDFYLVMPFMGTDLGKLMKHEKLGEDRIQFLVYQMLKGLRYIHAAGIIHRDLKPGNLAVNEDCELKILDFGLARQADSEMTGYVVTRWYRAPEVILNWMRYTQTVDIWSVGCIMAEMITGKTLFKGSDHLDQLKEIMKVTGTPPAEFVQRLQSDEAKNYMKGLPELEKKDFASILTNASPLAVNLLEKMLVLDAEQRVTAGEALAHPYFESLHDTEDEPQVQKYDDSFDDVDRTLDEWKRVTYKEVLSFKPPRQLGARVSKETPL
Outline: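 Recombinant phosphorylated p38 MAPKγ preincubated 2 h at RT with compound in HEPES buffer, then 2 μM FRET peptide and 100 μM ATP added for 1 h; protease development 1 h. Coumarin/fluorescein emission ratio gave phosphorylation; IC50 from concentration-response versus uninhibited control.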

[7] = tested on: TNFα release in d-U937 cells; assay: LPS-induced TNFα release in d-U937 cells; assay type: cell-based, human; conditions: Homo sapiens, dU937, relative to 10 μg/mL BIRB796, read-out: LPS/TNFα REC50 d-U937
Outline: as §1

| SMILES | MTT Assay (Viability) 4 h d-U937, percentage loss of cell viability [1] [%] | MTT Assay (Viability) 24 h d-U937, percentage loss of cell viability [1] [%] | pIC50 [2] | pIC50 [3] | pIC50 [4] | pIC50 [5] | pIC50 [6] | pEC50 [7] |
| --- | --- | --- | --- | --- | --- | --- | --- | --- |
| CNC(=O)Nc1cc(Oc2ccc(NC(=O)Nc3cc(C(C)(C)C)nn3-c3ccc(CO)cc3)c(Cl)c2Cl)ncn1 [Example 99, 1-(3-tert-butyl-1-(4-hydroxymethylphenyl)-1H-pyrazol-5-yl)-3-(2,3-dichloro-4-(6-(3-methylureido)pyrimidin-4-yloxy)phenyl)urea] | 3.7 | 92.4 | 7.62 | 8.49 | 8.96 | 8.16 | 6.84 | 9.00 |
| CNC(=O)Nc1cc(COc2ccc(NC(=O)Nc3cc(C(C)(C)C)nn3-c3ccc(C)cc3)c(Cl)c2Cl)ccn1 [Example 102, 1-(4-((4-(3-(3-tert-butyl-1-p-tolyl-1H-pyrazol-5-yl)ureido)-2,3-dichlorophenoxy)methyl)pyridin-2-yl)-3-methylurea] | −14.1 | 8.8 | 7.36 | 7.60 | 8.46 | 8.32 | 6.85 | 8.33 |
| COCC(=O)Nc1cc(Oc2ccc(NC(=O)Nc3cc(C(C)(C)C)nn3-c3ccc(C)cc3)cc2C#N)ccn1 [Example 28, N-(4-(4-(3-(3-tert-butyl-1-p-tolyl-1H-pyrazol-5-yl)ureido)-2-cyanophenoxy)pyridin-2-yl)-2-methoxyacetamide] | −3.8 | 71.0 | 7.32 | 7.94 | 8.49 | 8.15 | 7.52 | 8.57 |
| COCC(=O)Nc1cc(Oc2ccc(NC(=O)Nc3cc(C(C)(C)C)nn3-c3ccc(C)cc3)cc2S(C)(=O)=O)ccn1 [Example 31, N-(4-(4-(3-(3-tert-butyl-1-p-tolyl-1H-pyrazol-5-yl)ureido)-2-methylsulfonylphenoxy)pyridin-2-yl)-2-methoxyacetamide] | 1.1 | 49.3 | 6.81 | 6.97 | 6.84 | 6.58 | 6.54 | 6.76 |
| CNC(=O)Nc1cc(Oc2ccc(NC(=O)Nc3cc(C4(C)CCCCC4)nn3-c3ccc(C)cc3)c(Cl)c2Cl)ccn1 [Example 73, 1-(3-(1-methylcyclohexyl)-1-p-tolyl-1H-pyrazol-5-yl)-3-(2,3-dichloro-4-(2-(3-methylureido)pyridin-4-yloxy)phenyl)urea] | −27.3 | 12.3 | 6.82 | 5.89 | 7.89 | 8.72 | 6.62 | 8.77 |
| COc1ccc(-n2nc(C(C)(C)C)cc2NC(=O)Nc2ccc(Oc3ccnc(NC(=O)N4CCC(N(C)C)CC4)c3)c(Cl)c2Cl)cc1 [Example 87, N-(4-(4-(3-(3-tert-butyl-1-(4-methoxyphenyl)-1H-pyrazol-5-yl)ureido)-2,3-dichlorophenoxy)pyridin-2-yl)-4-(dimethylamino)piperidine-1-carboxamide] | 7.1 | 39.3 | 7.84 | 9.00 | 9.00 | 8.68 | 7.77 | 8.77 |
| CN(C)CCCC(=O)Nc1cc(Oc2ccc(NC(=O)Nc3cc(C(C)(C)C)nn3-c3ccc(CO)cc3)c(Cl)c2Cl)ncn1 [Example 22] | −20.9 | 85.2 | 8.12 | 8.31 | 8.96 | 7.47 | 7.69 | 8.82 |
| CNC(=O)Nc1cc(Oc2ccc(NC(=O)Nc3cc(C(C)(C)C)nn3-c3ccc(C(=O)O)cc3)c(Cl)c2Cl)ccn1 [Example 60, 4-(3-tert-butyl-5-(3-(2,3-dichloro-4-(2-(3-methylureido)pyridin-4-yloxy)phenyl)ureido)-1H-pyrazol-1-yl)benzoic acid] | −15.4 | −52.4 | 7.99 | < 6.79 | 7.64 | 7.63 | 7.89 | 8.04 |
| COCC(=O)Nc1cc(Oc2cc(Cl)c(NC(=O)Nc3cc(C(C)(C)C)nn3-c3ccc(C)cc3)cc2F)ccn1 [Example 38, N-(4-(4-(3-(3-tert-butyl-1-p-tolyl-1H-pyrazol-5-yl)ureido)-5-chloro-2-fluorophenoxy)pyridin-2-yl)-2-methoxyacetamide] | 0.6 | 64.1 | 7.20 | 7.61 | 8.43 | 6.79 | 7.44 | 7.27 |
| COCC(=O)Nc1nccc(Oc2ccc(NC(=O)Nc3cc(C(C)(C)C)nn3-c3ccc(CO)cc3)c(Cl)c2Cl)n1 [Example 94, N-(4-(4-(3-(3-tert-butyl-1-(4-hydroxymethylphenyl)-1H-pyrazol-5-yl)ureido)-2,3-dichlorophenoxy)pyrimidin-2-yl)-2-methoxyacetamide] | 2.3 | 76.6 | 7.77 | 8.05 | 9.00 | 7.67 | 6.91 | 9.22 |
| Cc1ccc(-n2nc(C3(C)CCCCC3)cc2NC(=O)Nc2ccc(Oc3ccnc(NC(=O)N4CCCC4)c3)c(Cl)c2Cl)cc1 [Example 74, N-(4-(2,3-dichloro-4-(3-(3-(1-methylcyclohexyl)-1-p-tolyl-1H-pyrazol-5-yl)ureido)phenoxy)pyridin-2-yl)pyrrolidine-1-carboxamide] | 1.2 | 5.5 | 6.48 | 8.34 | 7.94 | 8.57 | 6.13 | 9.30 |
| COCC(=O)Nc1cc(Oc2ccc(NC(=O)Nc3cc(C(C)(C)C)nn3-c3ccc(C)cc3)c(F)c2)ccn1 [Example 1, N-(4-(4-(3-(3-tert-Butyl-1-p-tolyl-1H-pyrazol-5-yl)ureido)-3-fluorophenoxy)pyridin-2-yl)-2-methoxyacetamide] | 1.7 | 76.1 | 6.98 | 8.06 | 9.05 | 8.02 | 7.39 | 8.64 |
| COc1ccc(-n2nc(C(C)(C)C)cc2NC(=O)Nc2ccc(OCc3ccnc(NC(=O)N4CCCC4)c3)c(Cl)c2Cl)cc1 [Example 20, N-(4-((4-(3-(3-tert-Butyl-1-(4-methoxyphenyl)-1H-pyrazol-5-yl)ureido)-2,3-dichlorophenoxy)methyl)pyridin-2-yl)pyrrolidine-1-carboxamide] | −19.1 | 9.6 | 7.51 | 7.78 | 7.34 | 5.97 | < 4.81 | 7.16 |
